Counter-ions that a name gives are not always drawn.
Legend:
[1] = test system: carrageenin-induced rat paw edema; assay: Carrageenin-induced rat paw edema antiinflammatory assay; assay type: in vivo; details: 200 mg/kg of body weight
Source text: The compounds of this invention are useful as antiinflammatory agents because of their ability to suppress inflammation in mammals. […] Exp. Biol. Med. III, 544 (1962)].

isolated rabbit atrium = assay: Isolated rabbit atrium, increase in functional refractory period (antiarrhythmic); details: Oryctolagus cuniculus; for activation at 10 µM: 10^-5 molar; for activation at 1 µM: 10^-6 molar; for activation at 20 µM: 2 × 10^-5 molar
Method: The compounds of the invention are useful as antiarrhythmic agents because of their ability to alleviate cardiac arrhythmias. […] 198] wherein the compounds effect an increase in the functional refractory period. Compounds are dissolved in Krebs-Henseleit solution, and the percent change in the functional refractory period is monitored with an oscilloscope. […] Similarly at a concentration of 10^-^6 molar 1-(3-dimethylaminopropyl)-2-(p-bromophenyl)-4,5,6,7-tetrahydroindole hydrochloride and 1-(2-methylaminoethyl)-2-phenyl-1,4,5,6,7,8-hexahydrocyclohepta[b]pyrrole hydrochloride each effect a 150% increase in the functional refractory period.

central nervous system = assay: Mouse observation procedure of S. Irwin, central nervous system depressant effects (tranquilizer); assay type: in vivo; details: male COBS mice, behavior and reflex depression, muscle relaxation, read-out: minimum effective dose (MED)/Kilogram of body weight
Method: The compounds of the invention are useful as tranquilizers because of their depressant effects on the central nervous system. The depressant effects on the central nervous system were evaluated according to the mouse observation procedure of S. Irwin, Psychopharmacologia, 13, 222 (1968). Male COBS mice are dosed with the drug, and its effects on behavior and reflex depression together with muscle relaxation determined by the degree of deviation from control scores, with activity expressed in terms of minimum effective dose (MED). The effectiveness of compounds of the invention as tranquilizers is illustrated in Table I below.

[2] = test system: spontaneous hypertensive rat; assay: Lowering of blood pressure in the spontaneous hypertensive rat, indirect tail cuff method; assay type: in vivo; details: 100 mg/kg of body weight
Method: The compounds of this invention are also useful as antihypertensive agents because of their ability to lower blood pressure in mammals. […] 135. For example, at a dose of 100 mg/kg of body weight, the compounds shown in Table III below effect the corresponding decrease in systolic blood pressure.

Structure (SMILES)	inhibition in vivo at 200 mg/kg [1] [%]	minimal effective dose (central nervous system) [mg/kg]	other results
CNCCn1c(-c2cccc(C(F)(F)F)c2)cc2c1CCCC2 [1-(2-methylaminoethyl)-2-(m-trifluoromethylphenyl)-4,5,6,7-tetrahydroindole]	58	–	–
CCN(CC)CCn1c(-c2ccccc2)cc2c1CCC(C)C2 (stereo not shown) [Example 24, 1-(2-diethylaminoethyl)-2-phenyl-5-methyl-4,5,6,7-tetrahydroindole hydrochloride]	–	–	activation at 10 µM (isolated rabbit atrium): 208%
c1ccc(-c2cc3c(n2CCN2CCNCC2)CCCC3)cc1 [Example 5, 1-[2-(1-piperazinylethyl)]-2-phenyl-4,5,6,7-tetrahydroindole . dioxalate]	–	10	–
CNCCn1c(-c2ccccc2)cc2c1CCCCC2.Cl [Example 36, 1-(2-methylaminoethyl)-2-phenyl-1,4,5,6,7,8-hexahydrocyclohepta[b]pyrrole hydrochloride]	–	50	activation at 1 µM (isolated rabbit atrium): 150%
CN(C)CCCn1c(-c2ccccc2)cc2c1CCC2.Cl [Example 35, 1-(3-dimethylaminopropyl)-2-phenyl-1,4,5,6-tetrahydrocyclopenta[b]pyrrole hydrochloride]	–	50	activation at 20 µM (isolated rabbit atrium): 233%
CN(C)CCCn1c(-c2cccc(C(F)(F)F)c2)cc2c1CCCC2 [1-(3-dimethylaminopropyl)-2-(m-trifluoromethylphenyl)-4,5,6,7-tetrahydroindole]	–	40	–
CCNCCn1c(-c2ccccc2)cc2c1CCCCCC2.O=C(O)C(=O)O [Example 57, 1-(2-ethylaminoethyl)-2-phenyl-4,5,6,7,8,9-hexahydrocycloocta[b]pyrrole oxalate]	–	25	–
CCN(CC)CCCn1c(-c2ccccc2)cc2c1CCc1ccccc1-2 [Example 32, hydrochloride]	72	–	decrease in systolic blood pressure [2]: 40 mm Hg
CN(C)CCCn1c(-c2ccccc2)cc2c1-c1ccccc1CC2.Cl [Example 30, 1-(3-dimethylaminopropyl)-2-phenyl-4,5-dihydrobenz[g]indole hydrochloride]	–	–	decrease in systolic blood pressure [2]: 24 mm Hg
CNCCCn1c(-c2ccccc2)cc2c1CCCCC2 [Example 39, 1-(3-methylaminopropyl)-2-phenyl-1,4,5,6,7,8-hexahydrocyclohepta[b]pyrrole . HCl]	–	50	decrease in systolic blood pressure [2]: 42 mm Hg; activation at 10 µM (isolated rabbit atrium): 214%
CN(C)CCCn1c(-c2ccc(F)cc2)cc2c1CCCCC2.Cl [Example 55, 1-(3-dimethylaminopropyl)-2-(p-fluorophenyl)-1,4,5,6,7,8-hexahydrocyclohepta[b]pyrrole hydrochloride]	–	50	–
CC(C)NCCCn1c(-c2ccccc2)cc2c1CCCCC2 [Example 43, 1-(3-isopropylaminopropyl)-2-phenyl-1,4,5,6,7,8-hexahydrocyclohepta[b]pyrrole . oxalate]	–	37	–
CNCCn1c(-c2cccc(C(F)(F)F)c2)cc2c1CCCC2 [Example 14]	–	25	activation at 20 µM (isolated rabbit atrium): 200%
CC(C)N(CCn1c(-c2ccc(O)cc2)cc2c1CCCC2)C(C)C [Example 23, 1-(2-diisopropylaminoethyl)-2-(p-hydroxyphenyl)-4,5,6,7-tetrahydroindole]	44	–	–
COc1cc(-c2cc3c(n2CCCN(C)C)CCCCC3)cc(OC)c1OC.Cl [Example 54, 1-(3-dimethylaminopropyl)-2-(3,4,5-trimethoxyphenyl)-1,4,5,6,7,8-hexahydrocyclohepta[b]pyrrole hydrochloride]	–	50	–
CNCCCn1c(-c2ccc(OC)cc2)cc2c1CCCCC2.O=C(O)C(=O)O [Example 49, 1-(3-methylaminopropyl)-2-(p-methoxyphenyl)-1,4,5,6,7,8-hexahydrocyclohepta[b]-pyrrole oxalate]	–	10	–
CC(CN(C)C)n1c(-c2cccc(C(F)(F)F)c2)cc2c1CCCC2 (stereo not shown) [1-(1-methyl-2-dimethylaminoethyl)-2(m-trifluoromethylphenyl)-4,5,6,7-tetrahydroindole . HCl]	46	–	–
CN(C)CCCn1c(-c2ccc([N+](=O)[O-])cc2)cc2c1CCCCCC2 [Example 58, 1-(3-dimethylaminopropyl)-2-(p-nitrophenyl)-4,5,6,7,8,9-hexahydrocycloocta[b]-pyrrole hydrochloride]	–	–	activation at 10 µM (isolated rabbit atrium): 125%

Structure (SMILES)	inhibition in vivo at 200 mg/kg [1] [%]	minimal effective dose (central nervous system) [mg/kg]	other results
CN(C)CCCn1c(-c2ccc(N)cc2)cc2c1CCCCCC2 [1-(3-dimethylaminopropyl)-2-(p-aminophenyl)-4,5,6,7,8,9-hexahydrocycloocta[b]pyrrole]	57	–	–
CN(C)CCn1c(-c2ccccc2)cc2c1CCCC2 [Example 1, 1-(2-dimethylaminoethyl)-2-phenyl-4,5,6,7-tetrahydroindole hydrochloride]	47	–	activation at 20 µM (isolated rabbit atrium): 25%
CN(C)CCn1c(-c2ccccc2)cc2c1CCCCC2 [Example 37, 1-(2-dimethylaminoethyl)-2-phenyl-1,4,5,6,7,8-hexahydrocyclohepta[b]pyrrole . HCl]	–	–	decrease in systolic blood pressure [2]: 45 mm Hg
CN(C)CCCn1c2c(c(-c3ccccc3)c1-c1ccccc1)CCCC2.O.O=C(O)C(=O)O [Example 28, 1-(3-dimethylaminopropyl)-2,3-diphenyl-4,5,6,7-tetrahydroindole oxalate monohydrate]	–	25	–
CCNCCn1c(-c2ccccc2)cc2c1CCCC2 [Example 3, 1-(2-ethylaminoethyl)-2-phenyl-4,5,6,7-tetrahydroindole . oxalate]	–	25	–
CCN(CC)CCCn1c(-c2ccccc2)cc2c1CCc1ccccc1-2 [1-(3-diethylaminopropyl)-2-phenyl-4,5-dihydrobenz[e]-indole]	–	20	–
CN(C)CCCn1c(-c2ccc(Cl)cc2)cc2c1CCCC2 [1-(3-dimethylaminopropyl)-2-(p-chlorophenyl)-4,5,6,7-tetrahydroindole]	44	–	–
CCN(CC)CCn1c(-c2ccccc2)cc2c1CCC(C(C)(C)C)C2.Cl (stereo not shown) [Example 25, 1-(2-diethylaminoethyl)-2-phenyl-5-(t-butyl)-4,5,6,7-tetrahydroindole hydrochloride]	–	20	decrease in systolic blood pressure [2]: 30 mm Hg
CC(C)NC(C)Cn1c(-c2ccc(Cl)cc2)cc2c1CCCC2.Cl (stereo not shown) [Example 21, 1-(2-isopropylaminopropyl)-2-(p-chlorophenyl)-4,5,6,7-tetrahydroindole hydrochloride]	–	50	–
CN(C)CCCn1c(-c2ccc(F)cc2)cc2c1CCCCCC2 [Example 60, 1-(3-dimethylaminopropyl)-2-(p-fluorophenyl)-4,5,6,7,8,9-hexahydrocycloocta[b]pyrrole oxalate]	–	–	activation at 10 µM (isolated rabbit atrium): 139%
CNCCCn1c(-c2ccccc2)cc2c1CCC2.O=C(O)C(=O)O [Example 34, 1-(3-methylaminopropyl)-2-phenyl-1,4,5,6-tetrahydrocyclopenta[b]pyrrole oxalate]	–	25	–
CC(CN(C)C)n1c(-c2ccccc2)cc2c1CCCCC2 (stereo not shown) [Example 38, 1-(1-methyl-2-dimethylaminoethyl)-2-phenyl-1,4,5,6,7,8-hexahydrocyclohepta[b]pyrrole . oxalate]	58	6	–
CN(C)CCCn1c(-c2ccc(Br)cc2)cc2c1CCCC2 [Example 12, 2-(p-bromophenyl)-1-(3-dimethylaminopropyl)-4,5,6,7-tetrahydroindole hydrochloride]	–	–	activation at 1 µM (isolated rabbit atrium): 150%
COc1ccc(-c2cc3c(n2CCCN(C)C)CCCC3)cc1.Cl [Example 11, 1-(3-dimethylaminopropyl)-2-(p-methoxyphenyl)-4,5,6,7-tetrahydroindole hydrochloride]	44	50	activation at 10 µM (isolated rabbit atrium): 300%
CN(C)CCCn1c(-c2ccc(N)cc2)cc2c1CCCCCC2.O.O=C(O)C(=O)O.O=C(O)C(=O)O [Example 59, 1-(3-dimethylaminopropyl)-2-(p-aminophenyl)-4,5,6,7,8,9-hexahydrocycloocta[b]pyrrole dioxalate monohydrate]	–	25	–
CN(C)CCCn1c(-c2ccccc2)cc2c1CCc1ccccc1-2 [Example 31, hydrochloride]	56	20	decrease in systolic blood pressure [2]: 30 mm Hg
CN(C)CCCn1c(-c2ccccc2)cc2c1CCCC2 [Example 6, 1-(3-dimethylaminopropyl)-2-phenyl-4,5,6,7-tetrahydroindole . HCl]	45	–	–
CN(C)CCCn1c(-c2ccccc2)cc2c1CCCCCC2.Cl [Example 56, 1-(3-dimethylaminopropyl)-2-phenyl-4,5,6,7,8,9-hexahydrocycloocta[b]pyrrole hydrochloride]	–	–	decrease in systolic blood pressure [2]: 50 mm Hg

From US3997557A, “Substituted N-aminoalkylpyrroles” (American Hoechst Corporation, priority 1974, dated 1976)
